Reference: the supplement of paper PMC10307832

How the values were obtained:
Test in all cases: relative viability (nuclei count vs DMSO), 5 days (fraction); higher = more cells survive
[1] = compound: Cn1c(Nc2ccc(C(F)(F)F)cc2)nc2cc(Oc3ccnc(-c4ncc(C(F)(F)F)[nH]4)c3)ccc21 [RAF265] + Cc1nc(NC(=O)N2CCC[C@H]2C(N)=O)sc1-c1ccnc(C(C)(C)C(F)(F)F)c1 [Alpelisib] (partner 2 µM)
Summary of the method: (§1)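 Relative viability was taken as the ratio of nuclei in treated wells to nuclei in vehicle wells. Lung cancer cell lines in 1536-well plates received compounds by pin tool one day after seeding, either one drug alone or a fixed anchor-drug dose plus five library-drug doses (not always all listed) in √10 steps. Nuclei were counted on 4× images after 5 days of treatment, and values are medians of duplicate plates.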

[2] = compound: Cc1ccc(-n2nc(C(C)(C)C)cc2NC(=O)Nc2ccc(OCCN3CCOCC3)c3ccccc23)cc1 [Doramapimod] + COc1cccc2cc(-c3nc([C@H]4CC[C@H](C(=O)O)CC4)n4ncnc(N)c34)[nH]c12 [OSI-027] (partner 0.5 µM)
Summary of the method: as §1

[3] = compound: C1=CC=C2C(=C1)C=CC(=C2SSC3=C(C=CC4=CC=CC=C43)O)O [IPA-3] + O=C(CCCCCCC(=O)Nc1ccccc1)NO [Vorinostat] (partner 1 µM)
Summary of the method: as §1

[4] = compound: C1=CC=C2C(=C1)C=CC(=C2SSC3=C(C=CC4=CC=CC=C43)O)O [IPA-3] + COc1cccc2cc(-c3nc([C@H]4CC[C@H](C(=O)O)CC4)n4ncnc(N)c34)[nH]c12 [OSI-027] (partner 0.5 µM)
Summary of the method: as §1

| Cell Line | relative viability ([1]; first compound 0.01 µM) | relative viability ([1]; first compound 0.03162 µM) | relative viability ([1]; first compound 0.1 µM) | relative viability ([1]; first compound 0.3162 µM) | relative viability ([1]; first compound 1 µM) | relative viability ([2]; first compound 0.02 µM) | relative viability ([2]; first compound 0.06325 µM) | relative viability ([2]; first compound 0.2 µM) | relative viability ([2]; first compound 0.6325 µM) | relative viability ([2]; first compound 2 µM) | relative viability ([3]; first compound 0.2 µM) | relative viability ([3]; first compound 0.6325 µM) | relative viability ([3]; first compound 2 µM) | relative viability ([3]; first compound 6.325 µM) | relative viability ([3]; first compound 20 µM) | relative viability ([4]; first compound 0.2 µM) | relative viability ([4]; first compound 0.6325 µM) | relative viability ([4]; first compound 2 µM) | relative viability ([4]; first compound 6.325 µM) | relative viability ([4]; first compound 20 µM) |
| --- | --- | --- | --- | --- | --- | --- | --- | --- | --- | --- | --- | --- | --- | --- | --- | --- | --- | --- | --- | --- |
| NCI-H2009 | 1.21 | 1.11 | 1.03 | 1.05 | 0.594 | 0.657 | 0.72 | 0.773 | 0.765 | 0.587 | 0.858 | 0.685 | 0.89 | 0.723 | 0.642 | 0.918 | 0.6 | 0.649 | 0.59 | 0.359 |
| ABC-1 | 1.13 | 1.01 | 1.01 | 1.05 | 0.619 | 0.613 | 0.451 | 0.433 | 0.655 | 0.51 | 1.2 | 1.31 | 1.11 | 1.12 | 1.13 | 0.55 | 0.426 | 0.457 | 0.564 | 0.567 |
| IA-LM | 0.774 | – | 0.587 | 0.752 | 0.44 | – | – | – | – | – | 1.06 | 0.922 | 0.925 | 0.891 | 1.15 | – | – | – | – | – |
| NCI-H322M | 0.811 | 0.784 | 0.544 | 0.28 | 0.265 | 0.577 | 0.579 | 0.562 | 0.522 | 0.527 | 0.92 | 0.948 | 1.02 | 1.07 | 1.11 | 0.597 | 0.521 | 0.569 | 0.597 | 0.61 |
| NCI-H1792 | 0.668 | 0.663 | 0.668 | 0.518 | 0.168 | 0.634 | 0.672 | 0.628 | 0.702 | 0.534 | – | – | – | – | – | 0.789 | 0.718 | 0.641 | 0.711 | 0.792 |
| LXF-289 | 1.06 | 0.965 | 1 | 0.79 | 0.75 | 0.765 | 0.762 | 0.72 | 0.686 | 0.605 | 0.825 | 0.862 | 0.692 | 0.827 | 0.898 | 0.909 | 0.722 | 0.696 | 0.847 | 0.911 |
| HCC-827 | 0.984 | 1.02 | 1.01 | – | 0.735 | 0.715 | 0.762 | 0.756 | 0.763 | 0.544 | 0.87 | 0.871 | 0.739 | 0.864 | 0.771 | 0.842 | 0.69 | 0.773 | 0.724 | 0.703 |
| EMC-BAC-2 | 0.735 | 0.682 | 0.692 | 0.52 | 0.263 | 0.379 | 0.396 | 0.445 | 0.571 | 0.43 | 0.436 | 0.556 | 0.504 | 0.428 | 0.491 | 0.435 | 0.379 | 0.367 | 0.482 | 0.438 |
| NCI-H520 | 0.819 | 0.754 | 0.889 | 0.916 | 0.534 | 0.229 | 0.276 | 0.223 | 0.245 | 0.232 | 0.713 | 0.849 | – | 0.579 | 0.796 | 0.303 | 0.255 | 0.282 | 0.284 | 0.204 |
| NCI-H1755 | 0.966 | 0.864 | 0.779 | 0.486 | 0.408 | 0.709 | 0.659 | 0.727 | 0.669 | 0.586 | 0.863 | 0.61 | 0.694 | 0.63 | 0.704 | 0.831 | 0.616 | 0.688 | 0.607 | 0.702 |
| NCI-H522 | – | – | – | – | – | 0.667 | 0.705 | 0.767 | 0.68 | 0.656 | 0.879 | 0.897 | 0.854 | 0.894 | 1.06 | 0.719 | 0.619 | 0.751 | 0.764 | 0.846 |
| NCI-H1299 | 0.981 | 1.06 | 0.966 | 0.589 | 0.616 | – | – | – | – | – | – | – | – | – | – | – | – | – | – | – |
| NCI-H1563 | 0.977 | 0.999 | 0.973 | 0.898 | 0.985 | 0.739 | 0.765 | 0.733 | 0.761 | 0.73 | – | – | – | – | – | 0.841 | 0.794 | 0.74 | 0.828 | 0.716 |
| NCI-H1650 | – | – | – | – | – | 0.692 | 0.689 | 0.713 | 0.76 | 0.459 | 1.02 | 0.47 | 0.531 | 0.555 | 0.729 | 0.763 | 0.515 | 0.676 | 0.724 | 0.727 |
| Calu-6 | 0.958 | 0.771 | 0.43 | 0.302 | 0.274 | – | – | – | – | – | – | – | – | – | – | – | – | – | – | – |
| NCI-H1703 | 0.213 | 0.298 | 0.251 | 0.274 | 0.206 | – | – | – | – | – | – | – | – | – | – | – | – | – | – | – |
| EBC-1 | 0.907 | 0.794 | 0.495 | 0.403 | 0.541 | – | – | – | – | – | – | – | – | – | – | – | – | – | – | – |
| NCI-H1648 | – | – | – | – | – | 0.249 | 0.254 | 0.257 | 0.26 | 0.268 | 0.876 | 0.484 | 0.589 | 0.34 | 0.399 | 0.258 | 0.276 | 0.281 | 0.278 | 0.245 |
| ChaGo-K-1 | – | – | – | – | – | 0.632 | 0.607 | 0.63 | 0.518 | 0.409 | 0.968 | 0.699 | 0.757 | 0.864 | 0.875 | 0.708 | 0.551 | 0.574 | 0.603 | 0.628 |
| SW 900 | – | – | – | – | – | 0.547 | 0.579 | 0.858 | 0.599 | 0.523 | 0.609 | 0.531 | 0.641 | 0.654 | 0.481 | 0.759 | 0.611 | 0.6 | 0.556 | 0.409 |
| NCI-H2342 | – | – | – | – | – | 0.622 | 0.657 | 0.614 | 0.776 | 0.542 | 0.837 | 1.03 | 0.851 | 0.91 | 0.89 | 0.663 | 0.619 | 0.68 | 0.757 | 0.743 |
| A549 | 0.761 | 0.612 | 0.541 | 0.244 | 0.178 | – | – | – | – | – | – | – | – | – | – | – | – | – | – | – |
